From PMC6804419, “Synthesis and Inhibitory Effect of Some Indole‐Pyrimidine Based Hybrid Heterocycles on α‐Glucosidase and α‐Amylase as Potential Hypoglycemic Agents” (ChemistryOpen, 2019)

What was measured:
[1] = target: T1, α-glucosidase type 1 from baker's yeast (Saccharomyces cerevisiae, UniProt P53341); assay: α-Glucosidase inhibition assay; assay type: biochemical
T1 construct: purchased Sigma-Aldrich G5003
Text: (§1) α‐glucosidase type 1 from baker‘s yeast (G5003; Sigma‐Aldrich, St. Louis, MO, USA), p‐nitrophenyl α‐D‐glucopyranoside (N1377, Sigma‐Aldrich), sodiumphosphatemonobasic (S3139, Sigma‐Aldrich), sodiumphosphatedibasic (S5136, Sigma‐Aldrich), andacarbose (A8980, Sigma‐Aldrich), DMSO (Dimethylsulfoxide), α‐amylase from Aspergillus oryzae (Sigma Aldrich), starch, DNS (3, 5‐dinitrosalicylic acid), sodiumpotassiumtartratetetrahydrate.
Concentration of α‐glucosidase and substrate. Sodium phosphate buffer (0.1 M) was adjusted by 0.1 N HCl to pH 7.0 with a pH meter (Thermo Fisher Scientific Inc., Waltham, MA, USA). p‐Nitrophenyl α‐D‐glucopyranoside (10 mM) and α‐glucosidase solutions (1 U/ml) were solubilized in 0.1 M sodium phosphate buffer (pH 7.0). All the reagents were manufactured shortly before use and warmed to 37 °C in a water bath. Sodium phosphate buffer (0.1 M, 158 μl per well) was added to a 96‐well plate. α‐Glucosidase (20 μl) and 2 μl of sample were added to 20 μl of p‐nitrophenyl α‐D‐glucopyranoside. In the 200‐μl final reaction volume (0.02 U/well, 0.1 U/ml) the substrate concentration was adjusted to […]. The background signal due to the sample color was measured at 405 nm with the PerkinElmer Wallac Victor3 spectrophotometer (PerkinElmer, Waltham, MA, USA) prior to adding the enzyme. Immediately following α‐glucosidase addition, absorbance was measured at 405 nm 8 times at 1‐min intervals.16
(§2) The inhibitory concentration 50 % (IC50) values were determined from the plots of percent inhibition versus log inhibitor concentration and calculated by logarithmic regression analysis from the mean inhibitory values.

[2] = target: T2, α-amylase from Aspergillus oryzae (Aspergillus oryzae, UniProt P0C1B3); assay: α-Amylase assay; assay type: biochemical
T2 construct: purchased Sigma Aldrich
Method: as §1
Briefly, 250 μL (0.4 mg/mL) was preincubated with 250 μL of α‐amylase solution for 10 min at 25 °C in one set of tubes. In another set of tubes α‐amylase was preincubated with 250 μL of phosphate buffer (pH 6.9). 250 μL of starch solution at increasing concentrations (0.2–1 % (w/v)) was added to both sets of reaction mixtures to start the reaction. The mixture was then incubated for 10 min at 25 °C and then boiled for 15 min after the addition of 250 μL of DNS to stop the reaction. The amount of reducing sugars released was determined spectrophotometrically using a maltose standard curve and converted to reaction velocities.
as §2

T1 sequence (P53341 whole entry): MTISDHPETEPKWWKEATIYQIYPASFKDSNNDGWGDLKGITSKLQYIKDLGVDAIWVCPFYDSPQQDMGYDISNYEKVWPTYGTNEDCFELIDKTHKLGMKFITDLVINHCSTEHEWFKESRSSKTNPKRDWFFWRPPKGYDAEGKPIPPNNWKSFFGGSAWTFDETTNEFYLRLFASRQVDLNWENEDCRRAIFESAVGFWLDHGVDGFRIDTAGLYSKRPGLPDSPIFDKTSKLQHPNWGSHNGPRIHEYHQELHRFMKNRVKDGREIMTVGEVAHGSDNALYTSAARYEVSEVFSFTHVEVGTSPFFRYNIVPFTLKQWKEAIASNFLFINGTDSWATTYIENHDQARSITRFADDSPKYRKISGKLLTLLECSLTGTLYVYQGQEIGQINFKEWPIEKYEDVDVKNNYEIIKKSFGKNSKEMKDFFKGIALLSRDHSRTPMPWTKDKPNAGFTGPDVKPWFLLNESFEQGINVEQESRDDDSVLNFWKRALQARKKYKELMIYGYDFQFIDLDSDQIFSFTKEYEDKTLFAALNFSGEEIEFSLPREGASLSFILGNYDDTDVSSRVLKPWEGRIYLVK

CCn1cc(C(=O)CC(c2cccc(F)c2)C2C(=O)N(C)C(=O)N(C)C2=O)c2ccccc21 (centres unmarked) [5h, 5‐(3‐(1‐Ethyl‐1H‐indol‐3‐yl)‐1‐(3‐fluorophenyl)‐3‐oxopropyl)‐1,3‐dimethylpyrimidine‐2,4,6(1H,3H,5H)‐trione]
IC50 [1]: 61.1 ± 0.42 µM
IC50 [2]: 89.45 ± 0.44 µM
melting point: 188 to 189 °C

CN1C(=O)C(C(CC(=O)c2cn(C)c3ccccc23)c2ccccc2)C(=O)N(C)C1=O (centres unmarked) [5a, 1,3‐Dimethyl‐5‐(3‐(1‐methyl‐1H‐indol‐3‐yl)‐3‐oxo‐1‐phenylpropyl)pyrimidine‐2,4,6(1H,3H,5H)‐trione]
IC50 [1]: 65.14 ± 0.17 µM
IC50 [2]: 93.25 ± 0.1 µM
melting point: 185 to 186 °C

CCn1cc(C(=O)CC(c2cccs2)C2C(=O)N(C)C(=O)N(C)C2=O)c2ccccc21 (centres unmarked) [5l, 5‐(3‐(1‐Ethyl‐1H‐indol‐3‐yl)‐3‐oxo‐1‐(thiophen‐2‐yl)propyl)‐1,3‐dimethylpyrimidine‐2,4,6(1H,3H,5H)‐trione]
IC50 [1]: 22.3 ± 0.48 µM
IC50 [2]: 35.4 ± 0.6 µM
melting point: 154 to 155 °C

CCn1cc(C(=O)CC(c2cccc(Br)c2)C2C(=O)N(C)C(=O)N(C)C2=O)c2ccccc21 (centres unmarked) [5j, 5‐(1‐(3‐Bromophenyl)‐3‐(1‐ethyl‐1H‐indol‐3‐yl)‐3‐oxopropyl)‐1,3‐dimethylpyrimidine‐2,4,6(1H,3H,5H)‐trione]
IC50 [1]: 77.05 ± 0.04 µM
IC50 [2]: 86.42 ± 0.22 µM
melting point: 130 to 131 °C

CCn1cc(C(=O)CC(c2ccc(C)cc2)C2C(=O)N(C)C(=O)N(C)C2=O)c2ccccc21 (centres unmarked) [5b]
IC50 [1]: 53.15 ± 0.12 µM
IC50 [2]: 80.17 ± 0.05 µM
melting point: 155 to 156 °C

CCn1cc(C(=O)CC(c2ccco2)C2C(=O)N(C)C(=O)N(C)C2=O)c2ccccc21 (centres unmarked) [5m, 5‐(3‐(1‐Ethyl‐1H‐indol‐3‐yl)‐1‐(furan‐2‐yl)‐3‐oxopropyl)‐1,3‐dimethylpyrimidine‐2,4,6(1H,3H,5H)‐trione]
IC50 [1]: 64.35 ± 0.08 µM
IC50 [2]: 82.15 ± 0.5 µM
melting point: 188 to 189 °C

CCn1cc(C(=O)CC(c2ccc(Cl)cc2Cl)C2C(=O)N(C)C(=O)N(C)C2=O)c2ccccc21 (centres unmarked) [5d, 5‐(1‐(2,4‐Dichlorophenyl)‐3‐(1‐ethyl‐1H‐indol‐3‐yl)‐3‐oxopropyl)‐1,3‐dimethylpyrimidine‐2,4,6(1H,3H,5H)‐trione]
IC50 [1]: 58.21 ± 0.09 µM
IC50 [2]: 96.42 ± 0.22 µM
melting point: 149 to 150 °C

CCn1cc(C(=O)CC(c2cc(OC)c(OC)c(OC)c2)C2C(=O)N(C)C(=O)N(C)C2=O)c2ccccc21 (centres unmarked) [5n, 5‐(3‐(1‐Ethyl‐1H‐indol‐3‐yl)‐3‐oxo‐1‐(3,4,5‐trimethoxyphenyl)propyl)‐1,3‐dimethylpyrimidine‐2,4,6(1H,3H,5H)‐trione]
IC50 [1]: 53.15 ± 0.12 µM
IC50 [2]: 93.25 ± 0.1 µM
melting point: 170 to 171 °C

CCn1cc(C(=O)CC(c2ccc(Cl)cc2)C2C(=O)N(C)C(=O)N(C)C2=O)c2ccccc21 (centres unmarked) [5c, 5‐(1‐(4‐Chlorophenyl)‐3‐(1‐ethyl‐1H‐indol‐3‐yl)‐3‐oxopropyl)‐1,3‐dimethylpyrimidine‐2,4,6(1H,3H,5H)‐trione]
IC50 [1]: 49.75 ± 0.01 µM
IC50 [2]: 71.24 ± 0.2 µM
melting point: 166 to 167 °C

CCn1cc(C(=O)CC(c2ccc3ccccc3c2)C2C(=O)N(C)C(=O)N(C)C2=O)c2ccccc21 (centres unmarked) [5o, 5‐(3‐(1‐Ethyl‐1H‐indol‐3‐yl)‐1‐(naphthalen‐2‐yl)‐3‐oxopropyl)‐1,3‐dimethylpyrimidine‐2,4,6(1H,3H,5H)‐trione]
IC50 [1]: 13.02 ± 0.01 µM
IC50 [2]: 21.7 ± 0.82 µM

CCn1cc(C(=O)CC(c2ccc(C(F)(F)F)cc2)C2C(=O)N(C)C(=O)N(C)C2=O)c2ccccc21 (centres unmarked) [5k, 5‐(3‐(1‐Ethyl‐1H‐indol‐3‐yl)‐3‐oxo‐1‐(4‐(trifluoromethyl)phenyl)propyl)‐1,3‐dimethylpyrimidine‐2,4,6(1H,3H,5H)‐trione]
IC50 [1]: 20.5 ± 0.44 µM
IC50 [2]: 47.11 ± 0.09 µM
melting point: 168 to 169 °C

CCn1cc(C(=O)CC(c2ccc(OC)cc2)C2C(=O)N(C)C(=O)N(C)C2=O)c2ccccc21 (centres unmarked) [5e, 5‐(3‐(1‐Ethyl‐1H‐indol‐3‐yl)‐1‐(4‐methoxyphenyl)‐3‐oxopropyl)‐1,3‐dimethylpyrimidine‐2,4,6(1H,3H,5H)‐trione]
IC50 [1]: 61.4 ± 0.78 µM
IC50 [2]: 88.45 ± 0.32 µM
melting point: 128 to 129 °C

CCn1cc(C(=O)CC(c2ccc([N+](=O)[O-])cc2)C2C(=O)N(C)C(=O)N(C)C2=O)c2ccccc21 (centres unmarked) [5q, 5‐(3‐(1‐Ethyl‐1H‐indol‐3‐yl)‐1‐(4‐nitrophenyl)‐3‐oxopropyl)‐1,3‐ dimethylpyrimidine‐2,4,6(1H,3H,5H)‐trione]
IC50 [1]: 31.12 ± 0.11 µM
IC50 [2]: 63 ± 0.61 µM
melting point: 198 to 199 °C

CCn1cc(C(=O)CC(c2ccc(Br)cc2)C2C(=O)N(C)C(=O)N(C)C2=O)c2ccccc21 (centres unmarked) [5f, 5‐(1‐(4‐Bromophenyl)‐3‐(1‐ethyl‐1H‐indol‐3‐yl)‐3‐oxopropyl)‐1,3‐dimethylpyrimidine‐2,4,6(1H,3H,5H)‐trione]
IC50 [1]: 53.15 ± 0.12 µM
IC50 [2]: 78.25 ± 0.1 µM
melting point: 159 to 160 °C

CCn1cc(C(=O)CC(c2cccc(C)c2)C2C(=O)N(C)C(=O)N(C)C2=O)c2ccccc21 (centres unmarked) [5i, 5‐(3‐(1‐Ethyl‐1H‐indol‐3‐yl)‐3‐oxo‐1‐(m–tolyl)propyl)‐1,3‐dimethylpyrimidine‐2,4,6(1H,3H,5H)‐trione]
IC50 [1]: 73.15 ± 0.12 µM
IC50 [2]: 95.25 ± 0.1 µM
melting point: 125 to 126 °C

CCn1cc(C(=O)CC(c2ccc(F)cc2)C2C(=O)N(C)C(=O)N(C)C2=O)c2ccccc21 (centres unmarked) [5g, 5‐(3‐(1‐Ethyl‐1H‐indol‐3‐yl)‐1‐(4‐fluorophenyl)‐3‐oxopropyl)‐1,3‐dimethylpyrimidine‐2,4,6(1H,3H,5H)‐trione]
IC50 [1]: 69.75 ± 0.01 µM
IC50 [2]: 86.42 ± 0.22 µM
melting point: 185 to 186 °C
